Reference: patent US20110195403A1, “SYSTEMS AND METHODS FOR FERTILITY ANALYSIS” (priority 2010, published 2011)
Several values for one entry are separate records, joined by “and”; a condition that tells them apart may be missing. Identical values can stand only once. Like-named read-outs stand apart in the source and are kept apart here.

Tests used:
[1] = test system: peroxidase; test: Peroxidase assay in saliva (Amplex Red); assay type: biochemical
Method: To determine the effect of various GRAS compounds as inhibitors of peroxidase activity, a standard assay using Amplex® Red (Life Technologies), which releases a fluorescent oxidation product.
The test compounds, such as GRAS materials or cocktails of same, were prepared at a concentration of 500 ppm in distilled water. For the assay, 50 μl samples of test compounds were mixed with 20-30 μl of saliva (either “pooled” or “unpooled”) prior to the addition of Amplex® Red. […] Reactions were allowed to run for 30 minutes during these assays.

[2] = test system: Galactose Oxidase; conditions: dilute (3.5%) saliva; FIG. 13
[3] = target: T1, α-amylase (Homo sapiens, UniProt P0DUB6); test: α-Amylase inhibition saliva screening (2-chloro-p-nitrophenol-maltotriose substrate, absorbance 405 nm); assay type: biochemical; conditions: for % Inhibition / % Std: relative to 100% Saliva Control; for α-amylase assay reading, Ave / α-amylase assay reading (absorbance at 405 nm), single replicate: test compound prepared at 5,000 ppm, saliva, 37° C.; for inhibition of α-Amylase: 100% saliva samples, FIG. 11; for α-Amylase Inhibitor Activity: dilute (3.5%) saliva, FIG. 10
T1 sequence (P0DUB6 16-511): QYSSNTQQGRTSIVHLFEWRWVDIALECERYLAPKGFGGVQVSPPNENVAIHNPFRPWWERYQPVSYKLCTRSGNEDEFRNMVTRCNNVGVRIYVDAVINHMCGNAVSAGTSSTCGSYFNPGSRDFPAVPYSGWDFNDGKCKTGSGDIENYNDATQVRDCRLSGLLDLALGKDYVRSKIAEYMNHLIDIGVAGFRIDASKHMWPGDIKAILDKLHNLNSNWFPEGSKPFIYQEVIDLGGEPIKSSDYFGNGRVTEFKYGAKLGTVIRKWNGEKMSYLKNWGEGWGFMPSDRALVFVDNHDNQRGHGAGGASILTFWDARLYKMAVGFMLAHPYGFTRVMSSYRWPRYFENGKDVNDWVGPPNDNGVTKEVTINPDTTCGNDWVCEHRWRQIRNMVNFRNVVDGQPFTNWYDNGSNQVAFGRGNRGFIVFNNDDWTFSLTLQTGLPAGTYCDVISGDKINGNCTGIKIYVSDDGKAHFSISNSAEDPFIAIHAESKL
Description: Further details of these five compounds may also be seen in Table 4.

[4] = target: T2, Lysozyme (Homo sapiens, UniProt P61626); test: Lysozyme inhibition saliva screening (fluorescein-labeled Micrococcus lysodeikticus); assay type: biochemical; conditions: for inhibition of Lysozyme: 100% saliva samples (data not shown); for RFU Reading (60 mins): saliva, test compound prepared at 5,000 ppm; for Lysozyme Inhibitor Activity: dilute (3.5%) saliva, FIG. 12
T2 sequence (P61626 19-148): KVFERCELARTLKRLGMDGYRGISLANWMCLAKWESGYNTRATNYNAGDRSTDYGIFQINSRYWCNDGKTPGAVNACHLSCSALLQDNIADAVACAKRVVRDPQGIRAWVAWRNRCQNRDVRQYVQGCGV
Description: Further details of these five compounds may also be seen in Table 5.

[5] = 500 ppm, pooled or unpooled saliva, 30 minutes, FIGS. 26-29

## COc1ccc(O)c(C(C)(C)C)c1 [CDI-039, 3-tert--butyl-hydroxyanisole]
[1]; [5]
  peroxidase inhibition: significant peroxidase inhibition capabilities
[2]
  Galactose Oxidase Inhibitor Activity: shown to have Galactose Oxidase Inhibitor Activity

## Aluminum sulfate hydrate [CDI-34]
[3]; 0 min
  % Inhibition: 89.96%
  % Std: 10.04%
  α-amylase assay reading, Ave: 0.40
[3]; 0 min, sulfate hydrate
  α-amylase assay reading (absorbance at 405 nm), single replicate: 0.40 (2×) and 0.36 and 0.45
[3]
  inhibition of α-Amylase: shown to inhibit α-Amylase
  α-Amylase Inhibitor Activity: shown to have α-Amylase Inhibitor Activity
[3]; 5 min
  % Inhibition: 87.39%
  % Std: 12.61%
  α-amylase assay reading, Ave: 0.50
[3]; 5 min, sulfate hydrate
  α-amylase assay reading (absorbance at 405 nm), single replicate: 0.49 and 0.50 (2×) and 0.52
[3]; 15 min
  % Inhibition: 85.98%
  % Std: 14.02%
  α-amylase assay reading, Ave: 0.56
[3]; 15 min, sulfate hydrate
  α-amylase assay reading (absorbance at 405 nm), single replicate: 0.53 and 0.61 and 0.54 and 0.56

## Cn1c(=O)c2c(ncn2C)n(C)c1=O [CDI #33, Caffeine]
[1]; [5]
  peroxidase inhibition: significant peroxidase inhibition capabilities

## CC(=O)O [CDI-047, Acetic acid]
[4]
  inhibition of Lysozyme: shown to inhibit Lysozyme
  RFU Reading (60 mins): 33.53 RFU
  Lysozyme Inhibitor Activity: shown to have Lysozyme Inhibitor Activity
[2]
  Galactose Oxidase Inhibitor Activity: shown to have Galactose Oxidase Inhibitor Activity

## O=C(O)c1ccccc1 [CDI-40, Benzoic acid]
[4]
  inhibition of Lysozyme: shown to inhibit Lysozyme
  RFU Reading (60 mins): 35.82 RFU
  Lysozyme Inhibitor Activity: shown to have Lysozyme Inhibitor Activity
[2]
  Galactose Oxidase Inhibitor Activity: shown to have Galactose Oxidase Inhibitor Activity

## O=C(O)c1ccccc1 [CDI #16, Benzoic acid]
[1]
  peroxidase inhibition: significant peroxidase inhibition capabilities

## Aluminum potassium sulfate dodecahydrate [CDI-42]
[1]; [5]
  peroxidase inhibition: significant peroxidase inhibition capabilities
[2]
  Galactose Oxidase Inhibitor Activity: shown to have Galactose Oxidase Inhibitor Activity
[3]; 0 min
  % Inhibition: 77.07%
  % Std: 22.93%
  α-amylase assay reading (absorbance at 405 nm), single replicate: 0.80 and 1.13 and 0.90 and 0.84
  α-amylase assay reading, Ave: 0.92
[3]
  inhibition of α-Amylase: shown to inhibit α-Amylase
  α-Amylase Inhibitor Activity: shown to have α-Amylase Inhibitor Activity
[3]; 5 min
  % Inhibition: 53.76%
  % Std: 46.24%
  α-amylase assay reading (absorbance at 405 nm), single replicate: 1.65 and 2.15 and 1.80 and 1.81
  α-amylase assay reading, Ave: 1.85
[3]; 15 min
  % Inhibition: 42.65%
  % Std: 57.35%
  α-amylase assay reading (absorbance at 405 nm), single replicate: 2.37 and 2.38 and 2.25 and 2.17
  α-amylase assay reading, Ave: 2.29
